Assay results: patent publication US9242981B2, “Fused pyrazole derivatives as novel ERK inhibitors” (Merck Sharp & Dohme Corp., priority 2010, dated 2016)

Target: Mouse ERK2 protein (Mus musculus (Mouse), UniProt P63085)
Test: Coupled MEK1/ERK2 IMAP assay or Active ERK2 IMAP assay
Type: biochemical
Settings: Table 1, class symbols, 30 μM ATP
Procedure: 14 μl of kinase buffer (10 mM Tris.HCl pH 7.2, 10 mM MgCl2, 0.01% Tween-20, 1 mM DTT) containing 0.4 ng unphosphorylated Mouse ERK2 protein is added to each well of a black 384-well assay plate. […] DMSO concentration during initial incubation is 6.7%. […] DMSO concentration during ERK activation was 4%. After one hour, reactions are terminated by addition of 60 μl IMAP detections beads in binding buffer (Molecular Devices). Binding is allowed to equilibrate for 30 minutes before reading the plate on an LJL Analyst Fluorescence Polarization plate reader.
Activated ERK2 activity was also determined in the IMAP assay format using the procedure outlined above. […] Reactions proceeded for 30 minutes before termination by addition of […] IMAP detection beads in binding buffer. Plates were read as above after 30 minute binding equilibration.

Mouse ERK2 protein, sequence (P63085 whole entry): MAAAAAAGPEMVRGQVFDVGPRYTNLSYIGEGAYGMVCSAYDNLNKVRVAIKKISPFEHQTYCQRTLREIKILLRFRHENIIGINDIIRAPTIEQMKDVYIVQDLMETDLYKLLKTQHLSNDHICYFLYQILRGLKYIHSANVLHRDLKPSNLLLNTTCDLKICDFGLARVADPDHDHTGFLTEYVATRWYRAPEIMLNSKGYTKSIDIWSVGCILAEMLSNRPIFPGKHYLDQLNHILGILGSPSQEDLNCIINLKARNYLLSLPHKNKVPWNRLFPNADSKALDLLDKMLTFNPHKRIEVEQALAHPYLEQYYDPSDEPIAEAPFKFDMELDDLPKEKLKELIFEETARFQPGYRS

IC50 [nM]	SMILES
1000 to 100000	CC1(C(=O)Nc2ccccc2OCC2CCCO2)CCc2[nH]nc(-c3ccncc3)c2C1 (stereo not drawn) [Compound 20, 4,5,6,7-tetrahydro-5-methyl-3-(4-pyridinyl]-N-[2 [(tetrahydro-2-furanyl)-methoxy]phenyl]-1H-indazole-5-carboxamide]
101 to 1000	O=C(N[C@@H]1CCCNC1)N1CCc2[nH]nc(-c3ccncc3)c2C1 (single isomer, unassigned) [Compound 171]
21 to 100	Cc1cc(-c2n[nH]c3c2CN(C(=O)N[C@H]2CN(Cc4c(F)cccc4F)CC(F)(F)C2)CC3)ccn1 [Compound 180, N-[1-[(2,6-difluorophenyl)methyl]-5,5-difluoro-3(R)-piperidinyl]-1,4,6,7-tetrahydro-3-(2-methyl-4-pyridinyl)-5H-pyrazolo[4,3-c]pyridine-5-carboxamide]
< 20	O=C(NC1CC(O)CN(Cc2ccccc2Cl)C1)N1CCc2[nH]nc(-c3ccncc3)c2C1 (stereo not drawn) [Compound 114, N-[1-[(2-chlorophenyl)-methyl]-5-hydroxy-3-piperidinyl]-1,4,6,7-tetrahydro-3-(4-pyridinyl)-5H-pyrazolo[4,3-c]pyridine-5-carboxamide]
101 to 1000	CCC1(NC(=O)N2CCc3[nH]nc(-c4ccnc(C)c4)c3C2)CCCN(Cc2csc3ccccc23)C1 (stereo not drawn) [Compound 93, N-[1-(benzo[b]thien-3-ylmethyl)-3-ethyl-3-piperidinyl]-1,4,6,7-tetrahydro-3-(2-methyl-4-pyridinyl)-5H-pyrazolo[4,3-c]pyridine-5-carboxamide]
< 20	Cc1nc2ccc(-c3n[nH]c4c3CN(C(=O)N[C@@H]3CCCN(Cc5csc6ccccc56)C3)CC4)cc2o1 [Compound 189, N-[1-(benzo[b]thien-3-ylmethyl)-3(R)-piperidinyl]-1,4,6,7-tetrahydro-3-(2-methyl-6-benzoxazolyl)-5H-pyrazolo[4,3-c]pyridine-5-carboxamide]
< 20	CN1C[C@@H](NC(=O)N2CCc3[nH]nc(-c4ccncc4)c3C2)[C@H](c2ccccc2C(F)(F)F)C1 (racemic) [Compound 149, 1,4,6,7-tetrahydro-N-[trans-1-methyl-4-[2-(trifluoromethyl)phenyl]-3-pyrrolidinyl]-3-(4-pyridinyl)-5H-pyrazolo[4,3-c]pyridine-5-carboxamide]
21 to 100	O=C(N[C@@H]1CCCN(Cc2c(F)cccc2F)C1)N1CCc2[nH]nc(-c3ccc4c(c3)CCO4)c2C1 [Compound 179, N[1-[(2,6-difluorophenyl)methyl]-3(R)-piperidinyl]-3-(2,3-dihydro-5-benzofuranyl)-1,4,6,7-tetrahydro-5H-pyrazolo[4,3-c]pyridine-5-carboxamide]
1000 to 100000	CC1(C(=O)Nc2ccccc2OCCN2CCCCC2)CCc2[nH]nc(-c3ccncc3)c2C1 (stereo not drawn) [Compound 21, 4,5,6,7-tetrahydro-5-methyl-N-[2-[2-(1-piperidinyl)ethoxy]-phenyl]-3-(4-pyridinyl)-1H-indazole-5-carboxamide]
< 20	Cc1cccc(C)c1CN1CCC[C@@H](NC(=O)N2CCc3[nH]nc(-c4ccc5nn(C)cc5c4)c3C2)C1 [Compound 126, N-[1-[(2,6-dimethylphenyl)-methyl]-3(R)-piperidinyl]-1,4,6,7-tetrahydro-3-(2-methyl-2H-indazol-5-yl)-5H-pyrazolo[4,3-c]pyridine-5-carboxamide]
< 20	Cc1nc2ccc(-c3n[nH]c4c3CN(C(=O)N[C@@H]3CCCN(Cc5c(F)cccc5F)C3)CC4)cc2s1 [Compound 172, N-[1-[(2,6-difluorophenyl)methyl]-3(R)-piperidinyl]-1,4,6,7-tetrahydro-3-(2-methyl-6-benzothiazolyl)-5H-pyrazolo[4,3-c]pyridine-5-carboxamide]
101 to 1000	Cn1ccc(CN2CCC[C@@H](NC(=O)N3CCc4[nH]nc(-c5ccncc5)c4C3)C2)n1 [Compound 65, 1,4,6,7-tetrahydro-N-[1-[(1-methyl-1H-pyrazol-3-yl)methyl]-3(R)-piperidinyl]-3-(4-pyridinyl)-5H-pyrazolo[4,3-c]pyridine-5-carboxamide]
1000 to 100000	CCn1cc(Cl)c(NC(=O)C2CCc3[nH]nc(-c4ccncc4)c3C2)n1 (stereo not drawn) [Compound 2, N-(4-chloro-1-ethyl-1H-pyrazol-3-yl)-4,5,6,7-tetrahydro-3-(4-pyridinyl)-1H-indazole-5-carboxamide]
< 20	COc1cccc(F)c1CN1CCC[C@@H](NC(=O)N2CCc3[nH]nc(-c4ccc5nc(C)sc5c4)c3C2)C1 [Compound 170, N-[1-[(2-fluoro-6-methoxyphenyl)methyl]-3(R)-piperidinyl]-1,4,6,7-tetrahydro-3-(2-methyl-6-benzothiazolyl)-5H-pyrazolo[4,3-c]pyridine-5-carboxamide]
< 20	Cc1ccccc1[C@@H]1CN(C)C[C@H]1NC(=O)N1CCc2[nH]nc(-c3ccc(F)cc3)c2C1 (racemic) [Compound 141, 3-(4-fluorophenyl)-1,4,6,7-tetrahydro-N-[trans-1-methyl-4-(2-methylphenyl)-3-pyrrolidinyl]-5H-pyrazolo[4,3-c]pyridine-5-carboxamide]
21 to 100	O=C(N[C@H]1CNC[C@@H]1c1ccccc1)[C@H]1CCc2[nH]nc(-c3ccncc3)c2C1 (racemic) [Compound 13, 4,5,6,7-tetrahydro-N-(trans-4-phenyl-3-pyrrolidinyl)-3-(4-pyridinyl)-1H-indazole-5(S)-carboxamide]
< 20	CN1C[C@@H](NC(=O)N2CCc3[nH]nc(-c4ccc(F)cc4)c3C2)[C@H](c2ccccc2C(F)(F)F)C1 (racemic) [Compound 151, 3-(4-fluorophenyl)-1,4,6,7-tetrahydro-N-[trans-1-methyl-4-[2-(trifluoromethyl)phenyl]-3-pyrrolidinyl]-5H-pyrazolo[4,3-c]pyridine-5-carboxamide]
21 to 100	O=C(N[C@@H]1CCCN(Cc2ccccc2C(F)(F)F)C1)N1CCc2[nH]nc(-c3ccncc3)c2C1 [Compound 67, 1,4,6,7-tetrahydro-3-(4-pyridinyl)-N-[1-[[2-(trifluoromethyl)phenyl]meth-yl]-3(R)-piperidinyl]-5H-pyrazolo[4,3-c]pyridine-5-carboxamide]
< 20	COc1cccc(F)c1CN1CCC(F)C(NC(=O)N2CCc3[nH]nc(-c4ccnc(C)c4)c3C2)C1 (stereo not drawn) [Compound 135, N-[4-fluoro-1-[(2-fluoro-6-methoxyphenyl)methyl]-3-piperidinyl]-1,4,6,7-tetrahydro-3-(2-methyl-4-pyridinyl)-5H-pyrazolo[4,3-c]pyridine-5-carboxamide]
< 20	Cc1nc2ccc(-c3n[nH]c4c3CN(C(=O)N[C@@H]3CCCN(Cc5csc6ccccc56)C3)CC4)cc2s1 [Compound 174, N-[1-(benzo[b]thien-3-ylmethyl)-3(R)-piperidinyl]-1,4,6,7-tetrahydro-3-(2-methyl-6-benzothiazolyl)-5H-pyrazolo[4,3-c]pyridine-5-carboxamide]
< 20	O=C(NC1CNCC(c2ccccc2)C1)N1CCc2[nH]nc(-c3ccncc3)c2C1 (stereo not drawn) [Compound 47, 1,4,6,7-tetrahydro-N-(5-phenyl-3-piperidinyl)-3-(4-pyridinyl)-5H-pyrazolo[4,3-c]pyridine-5-carboxamide]
21 to 100	COc1ccc(-c2n[nH]c3c2CN(C(=O)N[C@@H]2CCCN(Cc4c(C)cccc4C)C2)CC3)cn1 [Compound 125, N-[1-[(2,6-dimethylphenyl)-methyl]-3(R)-piperidinyl]-1,4,6,7-tetrahydro-3-(6-Methoxy-3-pyridinyl)-5H-pyrazolo[4,3-c]pyridine-5-carboxamide]
21 to 100	Cc1cc(-c2n[nH]c3c2CN(C(=O)NC2CC(C)CN(Cc4c(F)cccc4F)C2)CC3)ccn1 (stereo not drawn) [Compound 89, N-[1-[(2,6-difluorophenyl)-methyl]-5-methyl-3-piperidinyl]-1,4,6,7-tetrahydro-3-(2-methyl-4-pyridinyl)-5H-pyrazolo[4,3-c]pyridine-5-carboxamide]
101 to 1000	CS(=O)(=O)c1cccc(CC(=O)N2CCc3[nH]nc(-c4ccncc4)c3C2)c1 [Compound 31]
1000 to 100000	Cn1cnc(CC(=O)N2CCc3[nH]nc(-c4ccncc4)c3C2)c1 [Compound 6, 4,5,6,7-tetrahydro-5-[(1-methyl-1H-imidazol-4-yl)acetyl]-3-(4-pyridinyl)-1H-pyrazolo[4,3-c]pyridine]
< 20	O=C(N[C@@H]1CCC[C@H]1c1ccccc1)N1CCc2[nH]nc(-c3ccncc3)c2C1 (racemic) [Compound 143, 1,4,6,7-tetrahydro-N-[trans-2-phenylcyclopentyl]-3-(4-pyridinyl)-5H-pyrazolo[4,3-c]pyridine-5-carboxamide]
101 to 1000	Cc1cc(-c2n[nH]c3c2CN(C(=O)NC2CCC(c4ccccc4)NC2)CC3)ccn1 (stereo not drawn) [Compound 105, 1,4,6,7-tetrahydro-3-(2-methyl-4-pyridinyl)-N-(6-phenyl-3-piperidinyl)-5H-pyrazolo[4,3-c]pyridine-5-carboxamide]
101 to 1000	COc1cccc(F)c1CN1CCCC(NC(=O)N2CCc3[nH]nc(-c4ccnc(C)c4)c3C2)C1C (stereo not drawn) [Compound 122, N-[1-[(2-fluoro-6-methoxyphenyl)methyl]-2-methyl-3-piperidinyl]-1,4,6,7-tetrahydro-3-(2-methyl-4-pyridinyl)-5H-pyrazolo[4,3-c]pyridine-5-carboxamide]
101 to 1000	COc1cccc(OC)c1CN1CCC[C@@H](NC(=O)N2CCc3[nH]nc(-c4ccncc4)c3C2)C1 [Compound 73]
101 to 1000	Cc1cc(-c2n[nH]c3c2CN(C(=O)N[C@H]2CC[C@H]4CC[C@@H]2N4Cc2c(F)cccc2F)CC3)ccn1 [Compound 164, N-[endo-8-[(2,6-difluorophenyl)methyl]-8-azabicyclo[3.2.1]oct-2-yl]-1,4,6,7-tetrahydro-3-(2-methyl-4-pyridinyl)-5H-pyrazolo[4,3-c]pyridine-5-carboxamide]
